{"source": "patent US20230285365A1", "about": "“USE OF A DHODH INHIBITOR COMPOUND IN COMBINATION CANCER THERAPY” (Servier Pharmaceuticals LLC, priority 2020, published 2023)", "test_system": "mouse lymphoma models (DLBCL, MCL, Burkitt lymphoma, Hodgkin lymphoma, undifferentiated lymphoma)", "test": "Growth inhibition study in tumor-bearing mice, various mouse lymphoma models", "format": "in vivo", "details": "doses as in treatment table (Compound 1 100 mg/kg BID, rituximab 20 mg/kg BIW, CHOP), FIGS. 1-3", "text": "See e.g., FIGS. 1-3, which show complete regression of certain diffuse large B-cell lymphoma (DLBCL), mantle cell lymphoma (MCL), Burkitt lymphoma, Hodgkin lymphoma, and undifferentiated lymphoma mouse models following treatment with Compound 1 and R-CHOP.\nGrowth Inhibition Study of Compound 1 with R-CHOP in Tumor-Bearing Mice.\nMice were implanted subcutaneously with 5×10^6 to 2×10^7 cells as required for each model. Tumor volumes were monitored twice a week until tumors reach approximately 150 mm^3. Once tumor burden was at this level, mice were randomized and treated with the following.\nAt the study end, tumor tissue, and plasma were collected 1 hr. post final dose of Compound 1. Treatment was well tolerated. FIGS. 1-3 show the percent change in tumor volume for the mouse models treated. […] A similar result was observed across the multiple subsets of lymphoma tested.", "data": [{"substance": "rituximab", "values": [{"measurement": "tumor response (percent change in tumor volume)", "result": "tumor growth continued"}]}]}
